Measurements published in ChEMBL document CHEMBL1201862, “PubChem BioAssay data set” (2004).
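A five-concentration, 48-hour dose response in 96-well plates underlies each endpoint, interpolated linearly between surrounding concentrations. At the GI50, growth is halved.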 Calls of active or inactive are those of the source. Cut-off read from the data, not from the text of the source: active = GI50 up to about 1.1 µM and inactive = higher.

Experiments:
Assay in all cases: growth of human tumour cells (NCI), 48 h
[1] = system: A498
[2] = system: A549
[3] = system: COLO 205
[4] = system: HOP-92
[5] = system: HT-29
[6] = system: K562
[7] = system: MOLT-4
[8] = system: Malme-3M
[9] = system: NCI-H522
[10] = system: OVCAR-4
[11] = system: OVCAR-5
[12] = system: SN12C
[13] = system: UACC-257
[14] = system: UACC-62
[15] = system: UO-31
[16] = system: OVCAR-3

Measured: GI50

COc1ccc(NC(=O)C(=O)C(C(=O)c2ccccc2)C2OC(=O)c3ccccc32)c([N+](=O)[O-])c1 (stereo unspecified)
inactive: [1] > 100 µM | [2] > 100 µM | [3] > 100 µM | [4] > 100 µM | [5] > 100 µM | [6] > 100 µM | [7] > 100 µM | [8] > 100 µM | [9] > 100 µM | [10] > 100 µM | [11] > 100 µM | [12] > 100 µM | [13] > 100 µM | [14] > 100 µM | [15] > 100 µM

CNS(=O)(=O)NNS(=O)(=O)c1ccc(OC)cc1
inactive: [1] > 100 µM | [2] > 100 µM | [3] > 100 µM | [5] > 100 µM | [6] > 100 µM | [7] > 100 µM | [8] > 100 µM | [9] > 100 µM | [16] > 100 µM | [10] > 100 µM | [13] > 100 µM | [14] > 100 µM | [15] > 100 µM

CC(C)(C)C(=O)C1CC(=O)c2ccccc2C1=O (stereo unspecified)
inactive: [1] 42.3 µM | [2] 38.2 µM | [3] 31.8 µM | [4] 24.8 µM | [6] 40.6 µM | [7] 27.8 µM | [8] 16.3 µM | [9] 23.6 µM | [16] 24.3 µM | [10] 33 µM | [11] 37.1 µM | [12] 28.2 µM | [13] 18.2 µM | [14] 25.8 µM | [15] 21.7 µM

CC1=C(C(=O)Nc2cccc(Cl)c2)C(c2ccccc2O)C(C(=O)Nc2cccc(Cl)c2)=C(C)N1
inactive: [1] 19.5 µM | [2] 20.2 µM | [3] 20 µM | [4] 20.1 µM | [5] 18.8 µM | [6] 22.4 µM | [7] 25.2 µM | [8] 19.4 µM | [9] 17.1 µM | [16] 20.6 µM | [10] 18.3 µM | [11] 19.4 µM | [12] 21.8 µM | [13] 20.2 µM | [15] 17.2 µM

C#CCC(O)c1ccccc1C(O)CC#C (stereo unspecified)
inactive: [2] > 100 µM | [3] > 100 µM | [4] 30.8 µM | [5] > 100 µM | [6] > 100 µM | [7] > 100 µM | [8] 79.4 µM | [9] 70.1 µM | [16] > 100 µM | [10] > 100 µM | [11] > 100 µM | [12] > 100 µM | [13] > 100 µM | [14] > 100 µM | [15] > 100 µM

Oc1ccc2ccccc2c1/N=N/c1ccc(F)cc1
inactive: [1] > 100 µM | [2] > 100 µM | [3] > 100 µM | [4] > 100 µM | [5] > 100 µM | [6] > 100 µM | [7] > 100 µM | [8] > 100 µM | [9] > 100 µM | [16] > 100 µM | [10] > 100 µM | [11] > 100 µM | [12] 42.7 µM | [14] > 100 µM | [15] 42.6 µM

O=C1C(=O)N(c2ccc(Cl)cc2)C(=O)C(=O)C1c1nc2ccccc2s1
inactive: [3] > 100 µM | [4] > 100 µM | [5] > 100 µM | [6] > 100 µM | [7] 21.9 µM | [8] > 100 µM | [9] > 100 µM | [16] > 100 µM | [10] > 100 µM | [11] > 100 µM | [12] > 100 µM | [13] > 100 µM | [14] > 100 µM | [15] > 100 µM

O=C(/C=C/c1ccccc1)CC1OC(=O)c2ccccc21 (stereo unspecified)
inactive: [1] > 100 µM | [2] > 100 µM | [3] > 100 µM | [4] 48.8 µM | [5] > 100 µM | [6] 75.5 µM | [7] 31 µM | [8] > 100 µM | [9] 31.3 µM | [10] > 100 µM | [11] > 100 µM | [13] 81.8 µM | [14] 26.1 µM | [15] > 100 µM

N#CC(C(=O)C(N)=O)c1ccccc1Cl (stereo unspecified)
inactive: [1] > 100 µM | [2] > 100 µM | [3] > 100 µM | [5] > 100 µM | [6] > 100 µM | [7] > 100 µM | [8] > 100 µM | [16] > 100 µM | [10] > 100 µM | [11] > 100 µM | [12] > 100 µM | [13] > 100 µM | [14] > 100 µM | [15] > 100 µM

O=c1cccccc1NCCCCCCCCCNc1cccccc1=O
inactive: [2] 9.66 µM | [3] 3.23 µM | [4] 18.7 µM | [5] 15.7 µM | [6] 3.35 µM | [7] 5.75 µM | [8] 7.52 µM | [9] 13.9 µM | [16] 9.06 µM | [10] 1.78 µM | [11] 17.5 µM | [12] 21 µM | [13] 2.12 µM | [14] 12.5 µM | [15] 12 µM

COc1cc(-c2c(C)c(C)nc(OC)c2C#N)cc(OC)c1OC
inactive: [1] > 100 µM | [2] > 100 µM | [3] > 100 µM | [4] 21.3 µM | [5] > 100 µM | [6] 58.7 µM | [7] 39.9 µM | [8] > 100 µM | [16] > 100 µM | [10] 61 µM | [12] > 100 µM | [13] 82.2 µM | [14] 40.6 µM | [15] 31.5 µM

CC1=C(C(=O)O)N2C(=O)[C@@H](NC(=O)C(c3ccccc3)N3CSC(=S)N(C(C)C)C3)C2SC1 (stereo partly specified)
inactive: [1] > 100 µM | [3] 86.3 µM | [4] > 100 µM | [5] > 100 µM | [6] 74.1 µM | [7] > 100 µM | [8] > 100 µM | [9] 30.4 µM | [16] > 100 µM | [10] > 100 µM | [11] > 100 µM | [12] > 100 µM | [13] > 100 µM | [14] > 100 µM | [15] > 100 µM

COc1cc2ccc3c4ccccc4cnc3c2cc1OC
inactive: [2] > 100 µM | [3] > 100 µM | [4] > 100 µM | [5] > 100 µM | [6] > 100 µM | [7] 93.1 µM | [8] > 100 µM | [9] > 100 µM | [16] > 100 µM | [10] > 100 µM | [11] > 100 µM | [12] > 100 µM | [13] > 100 µM | [14] > 100 µM | [15] > 100 µM

COCCN1C2=CCCCC2=Nc2c1nc(N)[nH]c2=O
inactive: [1] > 100 µM | [2] > 100 µM | [3] > 100 µM | [4] > 100 µM | [5] > 100 µM | [6] > 100 µM | [7] > 100 µM | [8] > 100 µM | [9] > 100 µM | [16] > 100 µM | [11] > 100 µM | [12] > 100 µM | [13] > 100 µM | [14] > 100 µM | [15] > 100 µM

CCCC1N2CCCCC2[C@@H]2c3[nH]c4ccccc4c3CCN12 (stereo partly specified)
inactive: [1] > 100 µM | [2] > 100 µM | [3] > 100 µM | [4] > 100 µM | [5] > 100 µM | [6] > 100 µM | [7] > 100 µM | [8] 25.8 µM | [16] > 100 µM | [10] > 100 µM | [11] > 100 µM | [12] > 100 µM | [13] > 100 µM | [14] 85.1 µM | [15] > 100 µM

COc1cccc2[s+]snc12
inactive: [1] 95.7 µM | [2] 77.6 µM | [3] > 100 µM | [5] 96.8 µM | [6] 25.7 µM | [7] 29.7 µM | [8] > 100 µM | [9] > 10 µM | [16] > 100 µM | [10] 43.9 µM | [11] > 100 µM | [12] 35.5 µM | [13] 30.1 µM | [14] 25.1 µM | [15] 25.1 µM

N#CC(C#N)c1ccc(C(=O)N2CCC[C@H]2CO)cc1
inactive: [2] > 100 µM | [3] > 100 µM | [4] 58.2 µM | [5] > 100 µM | [6] > 100 µM | [7] > 100 µM | [8] > 100 µM | [9] > 100 µM | [16] > 100 µM | [10] > 100 µM | [11] > 100 µM | [12] > 100 µM | [13] > 100 µM | [14] > 100 µM | [15] > 100 µM

c1ccc(SC2(Sc3ccccc3)CCCC2)cc1
inactive: [1] > 100 µM | [2] > 100 µM | [3] > 100 µM | [4] 71.1 µM | [6] > 100 µM | [7] > 100 µM | [9] > 100 µM | [16] > 100 µM | [10] > 100 µM | [12] > 100 µM | [13] > 100 µM | [14] > 100 µM | [15] > 100 µM

CC(=O)OC1CC2(c3ccccc3)C(=O)c3ccccc3N2O1 (stereo unspecified)
inactive: [1] > 100 µM | [2] > 100 µM | [3] > 100 µM | [4] 65.8 µM | [5] > 100 µM | [6] > 100 µM | [7] > 100 µM | [8] > 100 µM | [9] > 100 µM | [10] > 100 µM | [12] > 100 µM | [13] > 100 µM | [14] > 100 µM | [15] > 100 µM
